Experimental data: ChEMBL document CHEMBL3046329, “Sensitivity to silthiofam, tebuconazole and difenoconazole of Gaeumannomyces graminis var. tritici isolates from China” (Pest Manag Sci, 2012)
In brackets after ≈: the same amount, converted by molar mass.

How the values were obtained:
Type in all cases: functional, organism-based
Gaeumannomyces tritici [1] = experiment: Antifungal activity against sithiofam-sensitive Gaeumannomyces graminis var. tritici isolate HN17 expressing C2 genetic cluster assessed as reduction in fungal colony diameter after 4 days; settings: isolate HN17, 96 h
Gaeumannomyces tritici [2] = experiment: Antifungal activity against sithiofam-resistant Gaeumannomyces graminis var. tritici isolate HN02 expressing C1 genetic cluster assessed as reduction in fungal colony diameter after 4 days; settings: isolate HN02, 96 h
Gaeumannomyces tritici [3] = experiment: Antifungal activity against sithiofam-sensitive Gaeumannomyces graminis var. tritici isolate HN15 expressing C2 genetic cluster assessed as reduction in fungal colony diameter after 4 days; settings: isolate HN15, 96 h
Gaeumannomyces tritici [4] = experiment: Antifungal activity against sithiofam-sensitive Gaeumannomyces graminis var. tritici isolate AH07 expressing C2 genetic cluster assessed as reduction in fungal colony diameter after 4 days; settings: isolate AH07, 96 h
Gaeumannomyces tritici [5] = experiment: Antifungal activity against sithiofam-sensitive Gaeumannomyces graminis var. tritici isolate SD01 expressing C2 genetic cluster assessed as reduction in fungal colony diameter after 4 days; settings: isolate SD01, 96 h
Gaeumannomyces tritici [6] = experiment: Antifungal activity against sithiofam-resistant Gaeumannomyces graminis var. tritici isolate HN07 expressing C1 genetic cluster assessed as reduction in fungal colony diameter after 4 days; settings: isolate HN07, 96 h
Gaeumannomyces tritici [7] = experiment: Antifungal activity against sithiofam-sensitive Gaeumannomyces graminis var. tritici isolate HN26 expressing C2 genetic cluster assessed as reduction in fungal colony diameter after 4 days; settings: isolate HN26, 96 h
Gaeumannomyces tritici [8] = experiment: Antifungal activity against sithiofam-sensitive Gaeumannomyces graminis var. tritici isolate HN23 expressing C2 genetic cluster assessed as reduction in fungal colony diameter after 4 days; settings: isolate HN23, 96 h
Gaeumannomyces tritici [9] = experiment: Antifungal activity against sithiofam-sensitive Gaeumannomyces graminis var. tritici isolate JS08 expressing C2 genetic cluster assessed as reduction in fungal colony diameter after 4 days; settings: isolate JS08, 96 h
Gaeumannomyces tritici [10] = experiment: Antifungal activity against sithiofam-resistant Gaeumannomyces graminis var. tritici isolate HN03 expressing C1 genetic cluster assessed as reduction in fungal colony diameter after 4 days; settings: isolate HN03, 96 h
Gaeumannomyces tritici [11] = experiment: Antifungal activity against sithiofam-sensitive Gaeumannomyces graminis var. tritici isolate HN19 expressing C2 genetic cluster assessed as reduction in fungal colony diameter after 4 days; settings: isolate HN19, 96 h
Gaeumannomyces tritici [12] = experiment: Antifungal activity against sithiofam-sensitive Gaeumannomyces graminis var. tritici isolate HN24 expressing C2 genetic cluster assessed as reduction in fungal colony diameter after 4 days; settings: isolate HN24, 96 h
Gaeumannomyces tritici [13] = experiment: Antifungal activity against sithiofam-sensitive Gaeumannomyces graminis var. tritici isolate AH15 expressing C2 genetic cluster assessed as reduction in fungal colony diameter after 4 days; settings: isolate AH15, 96 h
Gaeumannomyces tritici [14] = experiment: Antifungal activity against sithiofam-resistant Gaeumannomyces graminis var. tritici isolate HN04 expressing C1 genetic cluster assessed as reduction in fungal colony diameter after 4 days; settings: isolate HN04, 96 h
Gaeumannomyces tritici [15] = experiment: Antifungal activity against sithiofam-sensitive Gaeumannomyces graminis var. tritici isolate HN29 expressing C2 genetic cluster assessed as reduction in fungal colony diameter after 4 days; settings: isolate HN29, 96 h
Gaeumannomyces tritici [16] = experiment: Antifungal activity against sithiofam-sensitive Gaeumannomyces graminis var. tritici isolate AH12 expressing C2 genetic cluster assessed as reduction in fungal colony diameter after 4 days; settings: isolate AH12, 96 h
Gaeumannomyces tritici [17] = experiment: Antifungal activity against sithiofam-sensitive Gaeumannomyces graminis var. tritici isolate AH04 expressing C2 genetic cluster assessed as reduction in fungal colony diameter after 4 days; settings: isolate AH04, 96 h
Gaeumannomyces tritici [18] = experiment: Antifungal activity against sithiofam-sensitive Gaeumannomyces graminis var. tritici isolate HN25 expressing C2 genetic cluster assessed as reduction in fungal colony diameter after 4 days; settings: isolate HN25, 96 h
Gaeumannomyces tritici [19] = experiment: Antifungal activity against sithiofam-resistant Gaeumannomyces graminis var. tritici isolate JS07 expressing C1 genetic cluster assessed as reduction in fungal colony diameter after 4 days; settings: isolate JS07, 96 h
Gaeumannomyces tritici [20] = experiment: Antifungal activity against sithiofam-resistant Gaeumannomyces graminis var. tritici isolate HN01 expressing C1 genetic cluster assessed as reduction in fungal colony diameter after 4 days; settings: isolate HN01, 96 h
Gaeumannomyces tritici [21] = experiment: Antifungal activity against sithiofam-resistant Gaeumannomyces graminis var. tritici isolate AH14 expressing C1 genetic cluster assessed as reduction in fungal colony diameter after 4 days; settings: isolate AH14, 96 h
Gaeumannomyces tritici [22] = experiment: Antifungal activity against sithiofam-sensitive Gaeumannomyces graminis var. tritici isolate AH03 expressing C2 genetic cluster assessed as reduction in fungal colony diameter after 4 days; settings: isolate AH03, 96 h
Gaeumannomyces tritici [23] = experiment: Antifungal activity against sithiofam-sensitive Gaeumannomyces graminis var. tritici isolate AH09 expressing C2 genetic cluster assessed as reduction in fungal colony diameter after 4 days; settings: isolate AH09, 96 h
Gaeumannomyces tritici [24] = experiment: Antifungal activity against sithiofam-sensitive Gaeumannomyces graminis var. tritici isolate HN11 expressing C2 genetic cluster assessed as reduction in fungal colony diameter after 4 days; settings: isolate HN11, HN11, 96 h
Gaeumannomyces tritici [25] = experiment: Antifungal activity against sithiofam-resistant Gaeumannomyces graminis var. tritici isolate JS06 expressing C1 genetic cluster assessed as reduction in fungal colony diameter after 4 days; settings: isolate JS06, 96 h
Gaeumannomyces tritici [26] = experiment: Antifungal activity against sithiofam-resistant Gaeumannomyces graminis var. tritici isolate HN05 expressing C1 genetic cluster assessed as reduction in fungal colony diameter after 4 days; settings: isolate HN05, 96 h
Gaeumannomyces tritici [27] = experiment: Antifungal activity against sithiofam-resistant Gaeumannomyces graminis var. tritici isolate HN13 expressing C1 genetic cluster assessed as reduction in fungal colony diameter after 4 days; settings: isolate HN13, 96 h
Gaeumannomyces tritici [28] = experiment: Antifungal activity against sithiofam-resistant Gaeumannomyces graminis var. tritici isolate HN27 expressing […] genetic cluster assessed as reduction in fungal colony diameter after 4 days; settings: isolate HN27, 96 h
Gaeumannomyces tritici [29] = experiment: Antifungal activity against sithiofam-sensitive Gaeumannomyces graminis var. tritici isolate SD02 expressing C2 genetic cluster assessed as reduction in fungal colony diameter after 4 days; settings: isolate SD02, 96 h
Gaeumannomyces tritici [30] = experiment: Antifungal activity against sithiofam-resistant Gaeumannomyces graminis var. tritici isolate HN20 expressing C1 genetic cluster assessed as reduction in fungal colony diameter after 4 days; settings: isolate HN20, 96 h
Gaeumannomyces tritici [31] = experiment: Antifungal activity against sithiofam-sensitive Gaeumannomyces graminis var. tritici isolate JS10 expressing C2 genetic cluster assessed as reduction in fungal colony diameter after 4 days; settings: isolate JS10, 96 h
Gaeumannomyces tritici [32] = experiment: Antifungal activity against sithiofam-sensitive Gaeumannomyces graminis var. tritici isolate SD05 expressing C2 genetic cluster assessed as reduction in fungal colony diameter after 4 days; settings: isolate SD05, 96 h
Gaeumannomyces tritici [33] = experiment: Antifungal activity against sithiofam-sensitive Gaeumannomyces graminis var. tritici isolate HN18 expressing C2 genetic cluster assessed as reduction in fungal colony diameter after 4 days; settings: isolate HN18, 96 h
Gaeumannomyces tritici [34] = experiment: Antifungal activity against sithiofam-resistant Gaeumannomyces graminis var. tritici isolate HN16 expressing C1 genetic cluster assessed as reduction in fungal colony diameter after 4 days; settings: isolate HN16, 96 h
Gaeumannomyces tritici [35] = experiment: Antifungal activity against sithiofam-sensitive Gaeumannomyces graminis var. tritici isolate AH16 expressing C2 genetic cluster assessed as reduction in fungal colony diameter after 4 days; settings: isolate AH16, 96 h
Gaeumannomyces tritici [36] = experiment: Antifungal activity against sithiofam-resistant Gaeumannomyces graminis var. tritici isolate JS05 expressing C1 genetic cluster assessed as reduction in fungal colony diameter after 4 days; settings: isolate JS05, 96 h
Gaeumannomyces tritici [37] = experiment: Antifungal activity against sithiofam-sensitive Gaeumannomyces graminis var. tritici isolate AH11 expressing C2 genetic cluster assessed as reduction in fungal colony diameter after 4 days; settings: isolate AH11, 96 h

**Q.** `CC1COC(Cn2cncn2)(c2ccc(Oc3ccc(Cl)cc3)cc2Cl)O1` (configuration not stated) [DIFENOCONAZOLE] was tested. Which EC50 (Gaeumannomyces tritici [1]) did it give?
**A.** The EC50 was 0.175 µg/mL (≈ 0.432 µM).

**Q.** What about the EC50 (Gaeumannomyces tritici [2]) of the same compound?
**A.** The EC50 was 0.236 µg/mL (≈ 0.58 µM).

**Q.** And the EC50 (Gaeumannomyces tritici [3])?
**A.** The EC50 was 0.0884 µg/mL (≈ 0.218 µM).

**Q.** What about the EC50 (Gaeumannomyces tritici [4]) of the same compound?
**A.** The EC50 was 0.539 µg/mL (≈ 1.33 µM).

**Q.** What about the EC50 (Gaeumannomyces tritici [5]) of the same compound?
**A.** Its EC50 is 0.782 µg/mL (≈ 1.93 µM).

**Q.** What about the EC50 (Gaeumannomyces tritici [6]) of the same compound?
**A.** Its EC50 is 0.481 µg/mL (≈ 1.18 µM).

**Q.** And the EC50 (Gaeumannomyces tritici [7])?
**A.** The EC50 was 0.366 µg/mL (≈ 0.902 µM).

**Q.** And the EC50 (Gaeumannomyces tritici [8])?
**A.** The EC50 was 0.331 µg/mL (≈ 0.816 µM).

**Q.** What about the EC50 (Gaeumannomyces tritici [9]) of the same compound?
**A.** Its EC50 is 0.163 µg/mL (≈ 0.4 µM).

**Q.** And the EC50 (Gaeumannomyces tritici [10])?
**A.** Its EC50 is 0.336 µg/mL (≈ 0.827 µM).

**Q.** And the EC50 (Gaeumannomyces tritici [11])?
**A.** Its EC50 is 0.326 µg/mL (≈ 0.803 µM).

**Q.** What about the EC50 (Gaeumannomyces tritici [12]) of the same compound?
**A.** Its EC50 is 0.111 µg/mL (≈ 0.274 µM).

**Q.** And the EC50 (Gaeumannomyces tritici [13])?
**A.** The EC50 was 0.169 µg/mL (≈ 0.415 µM).

**Q.** What about the EC50 (Gaeumannomyces tritici [14]) of the same compound?
**A.** Its EC50 is 0.255 µg/mL (≈ 0.626 µM).

**Q.** What about the EC50 (Gaeumannomyces tritici [15]) of the same compound?
**A.** The EC50 was 0.107 µg/mL (≈ 0.265 µM).

**Q.** What about the EC50 (Gaeumannomyces tritici [16]) of the same compound?
**A.** Its EC50 is 0.154 µg/mL (≈ 0.38 µM).

**Q.** And the EC50 (Gaeumannomyces tritici [17])?
**A.** The EC50 was 0.668 µg/mL (≈ 1.64 µM).

**Q.** What about the EC50 (Gaeumannomyces tritici [18]) of the same compound?
**A.** The EC50 was 0.154 µg/mL (≈ 0.38 µM).

**Q.** And the EC50 (Gaeumannomyces tritici [19])?
**A.** The EC50 was 0.201 µg/mL (≈ 0.495 µM).

**Q.** And the EC50 (Gaeumannomyces tritici [20])?
**A.** The EC50 was 0.389 µg/mL (≈ 0.958 µM).

**Q.** And the EC50 (Gaeumannomyces tritici [21])?
**A.** Its EC50 is 0.301 µg/mL (≈ 0.741 µM).

**Q.** What about the EC50 (Gaeumannomyces tritici [22]) of the same compound?
**A.** Its EC50 is 0.401 µg/mL (≈ 0.988 µM).

**Q.** And the EC50 (Gaeumannomyces tritici [23])?
**A.** The EC50 was 0.142 µg/mL (≈ 0.349 µM).

**Q.** What about the EC50 (Gaeumannomyces tritici [24]) of the same compound?
**A.** The EC50 was 0.164 µg/mL (≈ 0.403 µM).

**Q.** And the EC50 (Gaeumannomyces tritici [25])?
**A.** Its EC50 is 0.223 µg/mL (≈ 0.548 µM).

**Q.** And the EC50 (Gaeumannomyces tritici [26])?
**A.** The EC50 was 0.261 µg/mL (≈ 0.643 µM).

**Q.** What about the EC50 (Gaeumannomyces tritici [27]) of the same compound?
**A.** Its EC50 is 0.223 µg/mL (≈ 0.548 µM).

**Q.** What about the EC50 (Gaeumannomyces tritici [28]) of the same compound?
**A.** The EC50 was 0.226 µg/mL (≈ 0.557 µM).

**Q.** And the EC50 (Gaeumannomyces tritici [29])?
**A.** Its EC50 is 0.335 µg/mL (≈ 0.825 µM).

**Q.** And the EC50 (Gaeumannomyces tritici [30])?
**A.** Its EC50 is 0.569 µg/mL (≈ 1.4 µM).

**Q.** What about the EC50 (Gaeumannomyces tritici [31]) of the same compound?
**A.** The EC50 was 0.313 µg/mL (≈ 0.771 µM).

**Q.** What about the EC50 (Gaeumannomyces tritici [32]) of the same compound?
**A.** The EC50 was 0.694 µg/mL (≈ 1.71 µM).

**Q.** What about the EC50 (Gaeumannomyces tritici [33]) of the same compound?
**A.** Its EC50 is 0.313 µg/mL (≈ 0.769 µM).

**Q.** What about the EC50 (Gaeumannomyces tritici [34]) of the same compound?
**A.** Its EC50 is 1.01 µg/mL (≈ 2.49 µM).

**Q.** And the EC50 (Gaeumannomyces tritici [35])?
**A.** The EC50 was 0.126 µg/mL (≈ 0.309 µM).

**Q.** And the EC50 (Gaeumannomyces tritici [36])?
**A.** Its EC50 is 0.213 µg/mL (≈ 0.525 µM).

**Q.** What about the EC50 (Gaeumannomyces tritici [37]) of the same compound?
**A.** Its EC50 is 0.129 µg/mL (≈ 0.317 µM).
